Key:
Assay type in all cases: in vivo
[1] = tested on: Leptosphaeria nodorum; assay: Leptosphaeria nodorum test (wheat)/protective; settings: Parastagonospora nodorum, wheat plants, protective spray, evaluation 7-9 days after inoculation, read-out: Efficacy (%)
Experimental: Leptosphaeria nodorum Test (Wheat)/Protective
(§1) Solvent: 49 parts by weight of N,N-dimethylformamide
(§2) Emulsifier: 1 part by weight of alkylaryl polyglycol ether
To produce a suitable preparation of active compound, 1 part by weight of active compound is mixed with the stated amounts of solvent and emulsifier, and the concentrate is diluted with water to the desired concentration. To test for protective activity, young wheat plants are sprayed with the preparation of active compound at the stated application rate. 1 day after the treatment, the plants are inoculated with an aqueous spore suspension of Leptosphaeria nodorum and then remain at 100% relative atmospheric humidity and 22° C. for 48 h. The plants are then placed in a greenhouse at 90% relative atmospheric humidity and a temperature of 22° C. Evaluation is carried out 7-9 days after the inoculation. 0% means an efficacy which corresponds to that of the control, whereas an efficacy of 100% means that no infection is observed. In this test, the following compounds according to the invention show, at an active compound concentration of 500 ppm, an efficacy of 70% or more: […]

[2] = tested on: Puccinia triticina; assay: Puccinia triticina test (wheat)/protective; settings: 192 h, protective spray, evaluation 8 days after inoculation, read-out: Efficacy (%)
Experimental: Puccinia triticina Test (Wheat)/Protective
(§3) Solvent: 49 parts by weight of N,N-dimethylacetamide
as §2
To produce a suitable preparation of active compound, 1 part by weight of active compound is mixed with the stated amounts of solvent and emulsifier, and the concentrate is diluted with water to the desired concentration. To test for protective activity, young plants are sprayed with the preparation of active compound at the stated application rate. After the spray coating has dried on, the plants are sprayed with spores with a spore suspension of Puccinia triticina. The plants remain in an incubation cabin at 20° C. and 100% relative atmospheric humidity for 48 hours. The plants are placed in a greenhouse at a temperature of about 20° C. and a relative atmospheric humidity of about 80%. Evaluation follows 8 days after the inoculation. 0% means an efficacy which corresponds to that of the control, whereas an efficacy of 100% means that no infection is observed.
(§4) In this test, the following compounds according to the invention show, at an active compound concentration of 500 ppm, an efficacy of 70% or more: […]

[3] = tested on: Sphaerotheca fuliginea; assay: Sphaerotheca test (cucumber)/protective; settings: Podosphaera fuliginea, 168 h, cucumber plants, protective spray, evaluation 7 days after inoculation, read-out: Efficacy (%)
Experimental: Sphaerotheca Test (Cucumber)/Protective
as §1, §2
To produce a suitable preparation of active compound, 1 part by weight of active compound is mixed with the stated amounts of solvent and emulsifier, and the concentrate is diluted with water to the desired concentration. To test for protective activity, young cucumber plants are sprayed with the preparation of active compound at the stated application rate. 1 day after the treatment, the plants are inoculated with a spore suspension of Sphaerotheca fuliginea. The plants are then placed in a greenhouse at 70% relative air humidity and a temperature of 23° C. Evaluation follows 7 days after the inoculation. 0% means an efficacy which corresponds to that of the control, whereas an efficacy of 100% means that no infection is observed. In this test, the following compounds according to the invention show, at an active compound concentration of 500 ppm, an efficacy of 70% or more: […]

[4] = tested on: Venturia inaequalis; assay: Venturia test (apple)/protective; settings: 240 h, protective spray, evaluation 10 days after inoculation, read-out: Efficacy (%)
Experimental: Venturia Test (Apple)/Protective
(§5) Solvents: 24.5 parts by weight of acetone
(§6) • 24.5 parts by weight of dimethylacetamide Emulsifier: 1 part by weight of alkylaryl polyglycol ether
(§7) To produce a suitable preparation of active compound, 1 part by weight of active compound is mixed with the stated amounts of solvent and emulsifier, and the concentrate is diluted with water to the desired concentration. To test for protective activity, young plants are sprayed with the preparation of active compound at the stated application rate. After the spray coating has dried on, the plants are inoculated with an aqueous conidia suspension of the apple scab pathogen Venturia inaequalis and then remain in an incubation cabin at approx. 20° C. and 100% relative air humidity for 1 day. The plants are then placed in the greenhouse at about 21° C. and a relative atmospheric humidity of about 90%. Evaluation follows 10 days after the inoculation. 0% means an efficacy which corresponds to that of the control, whereas an efficacy of 100% means that no infection is observed.
(§8) In this test, the following compounds according to the invention show, at an active compound concentration of 100 ppm, an efficacy of 70% or more: […]

[5] = tested on: Uromyces appendiculatus; assay: Uromyces test (bean)/protective; settings: 240 h, protective spray, evaluation 10 days after inoculation, read-out: Efficacy (%)
Experimental: Uromyces Test (Bean)/Protective
as §5, §6
as §7, with “spore” for “conidia”, “bean rust” for “apple scab”, “Uromyces appendiculatus” for “Venturia inaequalis”, “about” for “approx.”, “atmospheric” for “air”
as §8

[6] = tested on: Blumeria graminis fsp. hordei; assay: Blumeria graminis test (barley)/protective; settings: 168 h, protective spray, evaluation 7 days after inoculation, read-out: Efficacy (%)
Experimental: Blumeria graminis Test (Barley)/Protective
as §3, §2
To produce a suitable preparation of active compound, 1 part by weight of active compound is mixed with the stated amounts of solvent and emulsifier, and the concentrate is diluted with water to the desired concentration. To test for protective activity, young plants are sprayed with the preparation of active compound at the stated application rate. After the spray coating has dried on, the plants are dusted with spores of Blumeria graminis fsp. hordei. The plants are placed in a greenhouse at a temperature of about 18° C. and a relative air humidity of about 80% to promote the development of mildew pustules. Evaluation follows 7 days after the inoculation. 0% means an efficacy which corresponds to that of the control, whereas an efficacy of 100% means that no infection is observed.
as §4

[7] = tested on: Alternaria solani; assay: Alternaria test (tomato)/protective; settings: 168 h, tomato plants, protective spray, evaluation 7 days after inoculation, read-out: Efficacy (%)
Experimental: Alternaria Test (Tomato)/Protective
as §1, §2
To produce a suitable preparation of active compound, 1 part by weight of active compound is mixed with the stated amounts of solvent and emulsifier, and the concentrate is diluted with water to the desired concentration. To test for protective activity, young tomato plants are sprayed with the preparation of active compound at the stated application rate. 1 day after the treatment, the plants are inoculated with a spore suspension of Alternaria solani and then remain at 100% rd. humidity and 22° C. for 24 h. The plants then remain at 96% rd. atmospheric humidity and a temperature of 20° C. Evaluation is carried out 7 days after the inoculation. 0% means an efficacy which corresponds to that of the control, whereas an efficacy of 100% means that no infection is observed.
as §4

Structure (SMILES) | pest or weed control at 500 ppm [1] [%] | pest or weed control at 500 ppm [2] [%] | pest or weed control at 500 ppm [3] [%] | pest or weed control at 100 ppm [4] [%] | pest or weed control at 100 ppm [5] [%] | pest or weed control at 500 ppm [6] [%] | pest or weed control at 500 ppm [7] [%]
CC(C)C(O)(COc1ccc(OC(F)(F)F)cc1)c1cncnc1 (stereo not shown) [Compound 2] | 100 | 100 | 99 | 94 | 100 | 100 | 100
CC(C)(C)C(O)(COc1ccc(OC(F)(F)F)cc1)c1cncnc1 (stereo not shown) [Compound 12] | 95 | 100 | 100 | 99 | 100 | 100 | 100
CC(C)(C)C(O)(COc1ccc(SC(F)(F)F)cc1)c1cncnc1 (stereo not shown) [Compound 17] | 94 | 100 | 95 | 100 | 100 | 100 | 94
CC1(C(O)(COc2ccc(OC(F)(F)F)cc2)c2cncnc2)CC1 (stereo not shown) [Compound 18] | 95 | 100 | 95 | 99 | 100 | 100 | 90
